According to US20170355705A1 (GlaxoSmithKline Intellectual Property (No.2) Limited, priority 2014, published 2017):
Counter-ions that a name gives are not always drawn.

Target: T1, SIRT1 (Homo sapiens, UniProt Q96EB6)
T1 sequence (Q96EB6 1-747): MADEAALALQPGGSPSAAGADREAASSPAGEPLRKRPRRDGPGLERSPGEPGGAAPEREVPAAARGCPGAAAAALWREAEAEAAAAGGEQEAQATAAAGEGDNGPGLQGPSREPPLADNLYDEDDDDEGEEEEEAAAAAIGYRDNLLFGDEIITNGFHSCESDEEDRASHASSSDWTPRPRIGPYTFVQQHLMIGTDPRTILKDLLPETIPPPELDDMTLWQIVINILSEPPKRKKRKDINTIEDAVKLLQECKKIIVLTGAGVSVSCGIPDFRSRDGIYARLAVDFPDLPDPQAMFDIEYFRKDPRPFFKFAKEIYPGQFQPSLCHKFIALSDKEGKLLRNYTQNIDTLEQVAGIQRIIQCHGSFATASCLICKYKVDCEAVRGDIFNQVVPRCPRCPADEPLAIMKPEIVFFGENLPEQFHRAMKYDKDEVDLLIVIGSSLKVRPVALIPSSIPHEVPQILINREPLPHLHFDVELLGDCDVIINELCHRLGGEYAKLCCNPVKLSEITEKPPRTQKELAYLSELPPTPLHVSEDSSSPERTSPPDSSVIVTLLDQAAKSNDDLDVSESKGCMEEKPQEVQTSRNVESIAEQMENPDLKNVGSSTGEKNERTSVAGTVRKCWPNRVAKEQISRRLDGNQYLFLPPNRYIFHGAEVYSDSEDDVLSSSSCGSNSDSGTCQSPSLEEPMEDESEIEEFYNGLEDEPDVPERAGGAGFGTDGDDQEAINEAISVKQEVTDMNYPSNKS
Test: Trp mass spectrometry assay of SIRT1 activity (EC1.5, percent maximum activation)
Assay type: biochemical
Settings: Trp mass spectrometry assay; for TRP Activity (EC1.5): EC1.5 = concentration giving 150% activation of SIRT1
Procedure, shortened: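 Mass spectrometry read-out (OAADPR formed, or deacetylated Trp peptide) after a 25 min NAD-dependent deacetylation by E. coli-expressed His-SIRT1, stopped with formic acid.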

[1] = 0.5 μM peptide substrate, 120 μM βNAD+, 10 nM SIRT1, 25 minutes at 25° C.
[2] = percent maximum activation of SIRT1

Structure (SMILES)	TRP Activity (EC1.5, concentration of test compound that results in 150% activation of SIRT1) [1]	TRP MAX RESP (percent maximum fold activation) [1]	TRP Activity (EC1.5)	TRP MAX RESP (percent maximum fold activation) [2]
Cc1cc(-c2ccc3c(n2)N(C(=O)Nc2nc4scc(C)n4n2)[C@H]2CCN3C2)ccn1 [Example 202, (4S)-7-(2-methylpyridin-4-yl)-N-(6-methylthiazolo[3,2-b][1,2,4]triazol-2-yl)-3,4-dihydro-1,4-methanopyrido[2,3-b][1,4]diazepine-5(2H)-carboxamide]	B (EC1.5 1-25 μM)	A (Fold activation ≧150%)		
Cc1cc(-c2ccc3c(n2)N(C(=O)Nc2nccc(-c4cnc(C)o4)n2)[C@H]2CCN3C2)ccn1 [Example 353]		A (Fold activation ≧150%)		
O=C(NCCO)N1c2nc(-c3cccc(C(F)(F)F)c3)ccc2N2CC[C@H]1C2 [Example 378, (4S)-N-(2-hydroxyethyl)-7-(3-(trifluoromethyl)phenyl)-3,4-dihydro-1,4-methanopyrido[2,3-b][1,4]diazepine-5(2H)-carboxamide]	B (EC1.5 1-25 μM)	A (Fold activation ≧150%)		
Cc1cc(-c2ccc3c(n2)N(C(=O)Nc2cnccn2)[C@H]2CCN3C2)cnn1 [Example 212, (4S)-7-(6-methylpyridazin-4-yl)-N-(pyrazin-2-yl)-3,4-dihydro-1,4-methanopyrido[2,3-b][1,4]diazepine-5(2H)-carboxamide]	B (EC1.5 1-25 μM)	A (Fold activation ≧150%)		
Cc1cc(-c2nc3c(cc2Cl)N2CC[C@@H](C2)N3C(=O)Nc2cccc(OC[C@H](O)CO)n2)ccn1 [Example 41, (4S)-8-chloro-N-(6-((R)-2,3-dihydroxypropoxy)pyridin-2-yl)-7-(2-methylpyridin-4-yl)-3,4-dihydro-1,4-methanopyrido[2,3-b][1,4]diazepine-5(2H)-carboxamide]			B (EC1.5 1-25 μM)	A (Fold activation ≧150%)
Cc1ccc(-c2ccc3c(n2)N(C(=O)NCC(C)(C)C)[C@H]2CCN3C2)cn1 [Example 237, (4S)-7-(6-methylpyridin-3-yl)-N-neopentyl-3,4-dihydro-1,4-methanopyrido[2,3-b][1,4]diazepine-5(2H)-carboxamide]	C (EC1.5>25 μM)	B (Fold Activation <150%)		
Cc1ccc(-c2nc3c(cc2C#N)N2CC[C@@H](C2)N3C(=O)Nc2cccnc2)cn1 [Example 10, (4S)-8-cyano-7-(6-methylpyridin-3-yl)-N-(pyridin-3-yl)-3,4-dihydro-1,4-methanopyrido[2,3-b][1,4]diazepine-5(2H)-carboxamide]			B (EC1.5 1-25 μM)	A (Fold activation ≧150%)
COc1ncc(C(F)(F)F)cc1-c1nc2c(cc1Cl)N1CC[C@@H](C1)N2C(=O)Nc1ccnc(OC[C@@H](O)CO)c1 [Example 103, (4S)-8-chloro-N-(2-((S)-2,3-dihydroxypropoxy)pyridin-4-yl)-7-(2-methoxy-5-(trifluoromethyl)pyridin-3-yl)-3,4-dihydro-1,4-methanopyrido[2,3-b][1,4]diazepine-5(2H)-carboxamide]			B (EC1.5 1-25 μM)	A (Fold activation ≧150%)
O=C(Nc1ccccn1)N1c2nc(N3CCC[C@H]3C(F)(F)F)ccc2N2CC[C@H]1C2 [Example 120, (4S)-N-(pyridin-2-yl)-7-((S)-2-(trifluoromethyl)pyrrolidin-1-yl)-3,4-dihydro-1,4-methanopyrido[2,3-b][1,4]diazepine-5(2H)-carboxamide]			B (EC1.5 1-25 μM)	A (Fold activation ≧150%)
Cn1cc(-c2ccc3c(n2)N(C(=O)Nc2cnccn2)[C@H]2CCN3C2)cn1 [Example 155, (4S)-7-(1-methyl-1H-pyrazol-4-yl)-N-(pyrazin-2-yl)-3,4-dihydro-1,4-methanopyrido[2,3-b][1,4]diazepine-5(2H)-carboxamide]			B (EC1.5 1-25 μM)	A (Fold activation ≧150%)
Cc1cc(-c2ccc3c(n2)N(C(=O)Nc2cnccn2)[C@H]2CCN3C2)c(F)cn1 [Example 217, (4S)-7-(5-fluoro-2-methylpyridin-4-yl)-N-(pyrazin-2-yl)-3,4-dihydro-1,4-methanopyrido[2,3-b][1,4]diazepine-5(2H)-carboxamide]	B (EC1.5 1-25 μM)	A (Fold activation ≧150%)		
O=C(Nc1cccc(OCCCO)n1)N1c2nc(-c3cccc(C(F)(F)F)c3)c(Cl)cc2N2CC[C@H]1C2 [Example 67, (4S)-8-chloro-N-(6-(3-hydroxypropoxy)pyridin-2-yl)-7-(3-(trifluoromethyl)phenyl)-3,4-dihydro-1,4-methanopyrido[2,3-b][1,4]diazepine-5(2H)-carboxamide]			A (EC1.5<1 μM)	A (Fold activation ≧150%)
Cn1ccc(-c2ccc3c(n2)N(C(=O)Nc2cnccn2)[C@H]2CCN3C2)cc1=O [Example 264]		A (Fold activation ≧150%)		
Cc1cc(-c2ccc3c(n2)N(C(=O)Nc2cc(-c4cnn(CC(F)(F)F)c4)ccn2)[C@H]2CCN3C2)ccn1 [Example 366]		A (Fold activation ≧150%)		
O=C(Nc1nccc(OC[C@@H](O)CO)n1)N1c2nc(-c3cccc(C(F)(F)F)c3)c(Cl)cc2N2CC[C@H]1C2 [Example 57, (4S)-8-chloro-N-(4-((S)-2,3-dihydroxypropoxy)pyrimidin-2-yl)-7-(3-(trifluoromethyl)phenyl)-3,4-dihydro-1,4-methanopyrido[2,3-b][1,4]diazepine-5(2H)-carboxamide]			A (EC1.5<1 μM)	A (Fold activation ≧150%)
Cc1cncc(NC(=O)N2c3nc(-c4ccnc(C)c4)ccc3N3CC[C@H]2C3)c1 [Example 194, (4S)-N-(5-methylpyridin-3-yl)-7-(2-methylpyridin-4-yl)-3,4-dihydro-1,4-methanopyrido[2,3-b][1,4]diazepine-5(2H)-carboxamide]			B (EC1.5 1-25 μM)	A (Fold activation ≧150%)
O=C(Nc1ccc(OC[C@H](O)CO)nc1)N1c2nc(-c3cccc(C(F)(F)F)c3)c(Cl)cc2N2CC[C@H]1C2 [Example 77, (4S)-8-chloro-N-(6-((R)-2,3-dihydroxypropoxy)pyridin-3-yl)-7-(3-(trifluoromethyl)phenyl)-3,4-dihydro-1,4-methanopyrido[2,3-b][1,4]diazepine-5(2H)-carboxamide]			A (EC1.5<1 μM)	A (Fold activation ≧150%)
Cc1cc(-c2ccc3c(n2)N(C(=O)N2CCCC2)[C@H]2CCN3C2)ccn1 [Example 173, ((4S)-7-(2-methylpyridin-4-yl)-3,4-dihydro-1,4-methanopyrido[2,3-b][1,4]diazepin-5(2H)-yl)(pyrrolidin-1-yl)methanone]			C (EC1.5>25 μM)	B (Fold Activation <150%)
Cc1cc(-c2ccc3c(n2)N(C(=O)Nc2cccc4nnc(C)cc24)[C@H]2CCN3C2)ccn1 [Example 153, (4S)-N-(3-methylcinnolin-5-yl)-7-(2-methylpyridin-4-yl)-3,4-dihydro-1,4-methanopyrido[2,3-b][1,4]diazepine-5(2H)-carboxamide]			B (EC1.5 1-25 μM)	A (Fold activation ≧150%)
O=C(Nc1cnccn1)N1c2nc(N3CCCCC3)ccc2N2CC[C@H]1C2 [Example 181, (4S)-7-(piperidin-1-yl)-N-(pyrazin-2-yl)-3,4-dihydro-1,4-methanopyrido[2,3-b][1,4]diazepine-5(2H)-carboxamide]			B (EC1.5 1-25 μM)	A (Fold activation ≧150%)
O=C(Nc1cc(OC[C@H](O)CO)ccn1)N1c2nc(-c3cccc(C(F)(F)F)c3)c(Cl)cc2N2CC[C@H]1C2 [Example 32, (4S)-8-chloro-N-(4-((R)-2,3-dihydroxypropoxy)pyridin-2-yl)-7-(3-(trifluoromethyl)phenyl)-3,4-dihydro-1,4-methanopyrido[2,3-b][1,4]diazepine-5(2H)-carboxamide, Hydrochloride]			B (EC1.5 1-25 μM)	A (Fold activation ≧150%)
